Results taken from ChEMBL document CHEMBL2176999, “Update on the development of antagonists of chemoattractant receptor-homologous molecule expressed on Th2 cells (CRTH2). From lead optimization to clinical proof-of-concept in asthma and allergic rhinitis” (J Med Chem, 2012).
pIC50, pKi: −log10 of the molar value. One block for each compound: values may come before it.

Columns and labels:
[1] = target: T1, Prostaglandin D2 receptor 2 (Homo sapiens, UniProt Q9Y5Y4)
T1 sequence (Q9Y5Y4 whole entry): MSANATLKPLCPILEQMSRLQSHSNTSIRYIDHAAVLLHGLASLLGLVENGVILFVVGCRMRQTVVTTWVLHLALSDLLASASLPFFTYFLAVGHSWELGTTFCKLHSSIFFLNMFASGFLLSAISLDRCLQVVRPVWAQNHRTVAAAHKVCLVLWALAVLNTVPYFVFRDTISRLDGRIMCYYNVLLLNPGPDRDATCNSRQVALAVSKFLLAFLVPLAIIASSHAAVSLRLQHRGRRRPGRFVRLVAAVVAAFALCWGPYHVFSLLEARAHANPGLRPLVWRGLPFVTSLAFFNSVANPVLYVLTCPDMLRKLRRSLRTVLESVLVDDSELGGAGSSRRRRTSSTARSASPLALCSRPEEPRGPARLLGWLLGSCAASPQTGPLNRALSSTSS

[2] = target: Sodium-dependent serotonin transporter (Homo sapiens, UniProt P31645); experiment: Inhibition of SERT
Chain of Sodium-dependent serotonin transporter (P31645 whole entry): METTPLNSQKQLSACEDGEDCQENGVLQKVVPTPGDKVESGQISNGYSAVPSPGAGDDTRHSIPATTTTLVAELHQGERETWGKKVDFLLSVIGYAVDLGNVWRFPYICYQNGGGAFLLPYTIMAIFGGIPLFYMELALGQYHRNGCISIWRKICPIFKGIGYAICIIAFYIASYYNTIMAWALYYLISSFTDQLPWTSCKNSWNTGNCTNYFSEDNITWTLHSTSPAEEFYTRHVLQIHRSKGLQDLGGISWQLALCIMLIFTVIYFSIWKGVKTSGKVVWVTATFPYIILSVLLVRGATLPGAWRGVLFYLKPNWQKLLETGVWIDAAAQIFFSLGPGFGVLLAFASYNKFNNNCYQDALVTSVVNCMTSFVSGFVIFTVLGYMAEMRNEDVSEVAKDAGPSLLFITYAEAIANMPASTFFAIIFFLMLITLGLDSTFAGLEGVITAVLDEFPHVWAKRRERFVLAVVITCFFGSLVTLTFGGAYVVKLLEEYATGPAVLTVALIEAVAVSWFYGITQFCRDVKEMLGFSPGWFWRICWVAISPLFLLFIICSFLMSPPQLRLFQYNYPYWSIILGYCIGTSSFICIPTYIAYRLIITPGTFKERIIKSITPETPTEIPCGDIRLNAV

[3] = target: T1, Prostaglandin D2 receptor 2; experiment: Displacement of [3H]PGD2 from CRTH2 expressed in CHO cells after 1 hr by beta counting analysis; type: cell-based
[4] = target: T1, Prostaglandin D2 receptor 2; experiment: Displacement of [3H]PGD2 from human CRTH2 expressed in HEK293 cells after 90 mins by TopCount analysis; type: cell-based
[5] = target: T1, Prostaglandin D2 receptor 2; experiment: Displacement of [3H]PGD2 from human CRTH2 expressed in K562 cells after 60 mins by scintillation counting in presence of 4% human serum albumin; type: cell-based
[6] = target: T1, Prostaglandin D2 receptor 2; remark: listed apart in the source
Description: Inhibition of CRTH2 in human whole blood

[7] = target: T1, Prostaglandin D2 receptor 2; experiment: Antagonistic activity at CRTH2 in human eosinophils assessed as inhibition of PGD2-induced calcium mobilization after 60 mins by Fluo-3 based fluorescence assay; type: functional
[8] = target: T1, Prostaglandin D2 receptor 2; experiment: Displacement of [3H]PGD2 from human CRTH2 expressed in K562 cells after 60 mins by scintillation counting; type: cell-based
[9] = target: Aldo-keto reductase family 1 member B1 (Rattus norvegicus, UniProt P07943); experiment: Inhibition of rat aldose reductase
[10] = Oral bioavailability in rat; type: ADME, organism-based; conditions: in vivo
in vivo = conditions: rat

pKi [1]: 9.30
SMILES: CCc1c(CC(=O)O)c(C2CC2)nn1Cc1ccc(NC(=O)c2ccc(C(F)(F)F)cc2)cc1

pKi [2]: 6.84
pKi [3]: 6.84
SMILES: Cc1c(Sc2ccc(Cl)cc2)c2ncccc2n1CC(=O)O

pKi [1]: 6.97
SMILES: Cc1c(Sc2ccc(Cl)cc2)c2cc(Cl)ncc2n1CC(=O)O

pIC50 [2]: 5.70
SMILES: Cc1ccc2c(c1)c(-c1ccnc3c(C)cccc13)c(C)n2CC(=O)O

pIC50 [4]: 8.70
SMILES: O=C(O)Cn1c2c(c3cc(F)ccc31)C[C@H](NC(=O)CC(c1ccccc1)c1ccccc1)CC2

pKi [1]: 7.24
SMILES: Cc1c(Sc2ccc(Cl)cc2)c2c(Cl)nccc2n1CC(=O)O

pKi [1]: > 6.00
SMILES: O=C(O)Cc1ccc(Oc2ccc(NC(=O)c3ccc(Cl)c(Cl)c3)cc2)c(CNS(=O)(=O)c2ccc(F)cc2)c1

pIC50 [5]: 7.66
SMILES: O=C(Nc1cccc(-c2ccc(Cl)cc2)n1)c1ccc(Oc2cc3c(cc2Cl)[C@H](C(=O)O)CCO3)cc1

pIC50 [6]: 8.19
pKi [1]: 7.87
SMILES: CCN(Cc1cc(C(F)(F)F)ccc1-c1cc(CC(=O)O)ccc1OC)C(=O)C1CC1

pKi [7]: 7.82
pIC50 [6]: 6.09
SMILES: Cc1c(Cc2ccc3ccccc3c2)c2cc(F)ccc2n1CC(=O)O

pKi [7]: 8.05
SMILES: Cc1c(CC(=O)O)c2cc(F)ccc2n1Cc1ccc2ccccc2c1

pIC50 [4]: 9.00
SMILES: CN(C(=O)C1(C)CCc2c(c3ccccc3n2CC(=O)O)C1)c1cccc(Cl)c1 (stereo unspecified)

pIC50 [6]: 6.97
SMILES: Cc1c(CC(=O)O)c2cc(F)ccc2n1S(=O)(=O)c1ccc(S(C)(=O)=O)cc1

pIC50 [6]: 9.11
SMILES: C[C@H]1C[C@@H](N(C(=O)CCC(=O)O)c2ccccc2)c2ccccc2N1C(=O)c1ccccc1

pIC50 [6]: 8.10
SMILES: Cc1c(Cc2ccc(S(C)(=O)=O)cc2)c2cc(F)ccc2n1CC(=O)O

pKi [7]: 7.36
pIC50 [6]: 5.62
SMILES: Cc1c(CC(=O)O)c2cc(F)ccc2n1Cc1nc2ccccc2s1

pKi [8]: 8.27
SMILES: CCc1nc2c(F)ccc(OCC(=O)O)c2c(OC(F)F)c1Cc1ccc(-n2cccn2)cc1

pIC50 [9]: 6.26
bioavailability [10]: 100%
half-life (in vivo): 3.5 h
SMILES: Cc1c(Cc2ccc3ccccc3n2)c2cc(F)ccc2n1CC(=O)O [TIMAPIPRANT]

pKi [8]: 7.49
SMILES: Cc1cc(CC(=O)O)c2c(C)c(Cc3ccccc3)c(=O)oc2c1

pIC50 [6]: 6.46
SMILES: Cc1c(Cc2nc3ccccc3s2)c2cc(F)ccc2n1CC(=O)O
